Data on one compound can be found in US10383329B2, “Preservatives” (Eden Research PLC, priority 2012, dated 2019).

This data set in a line: Citral solution / stable suspension limit. The class given is physicochemical. From the text:
The choice of terpene may vary and mixtures of terpenes in an appropriate amount may be used. Thus, in one embodiment the terpene component includes one or more terpenes which contain oxygen. Citral, for example citral 95, is an oxygenated C10H16 terpene, C10H16O CAS No. 5392-40-5 (3,7-dimethyl-2,6-octadien-1-al). A stable suspension of citral can be formed up to about 2500 ppm. Citral can be made into a solution at up to about 500 ppm. A stable suspension of hollow glucan particles incorporating citral of 25 ppt citral can be made.

As to `CC(C)=CCCC(C)=CC=O` [Citral, 3,7-dimethyl-2,6-octadien-1-al], under “solution”, the “Concentration up to which citral can be made into a solution” value is “up to 500 ppm”. Further, under “stable suspension”, the “Concentration up to which a stable suspension of citral can be formed” value is listed as “up to 2500 ppm”.
